Measurements published in the kinase profiling compilation of Christmann-Franck et al. (2016).

How the values were obtained:
Test in all cases: KINOMEscan competition binding
Conditions in all cases: compound 10.0 µM
NTRK2 (human) = NTRK2 (human) (UniProt Q16620)
PLK2 (human) = PLK2 (human) (UniProt Q9NYY3)
PHKG1 (human) = PHKG1 (human) (UniProt Q16816)
[1] = system: LRRK2 (human), Q5S007 [G2019S]
CDK4 CCND1 (human) = CDK4 CCND1 (human) (UniProt P11802+P24385)
PIK3C2G (human) = PIK3C2G (human) (UniProt O75747)
PRKD1 (human) = PRKD1 (human) (UniProt Q15139)
ERBB4 (human) = ERBB4 (human) (UniProt Q15303)
AKT2 (human) = AKT2 (human) (UniProt P31751)
MAP3K15 (human) = MAP3K15 (human) (UniProt Q6ZN16)
CDKL5 (human) = CDKL5 (human) (UniProt O76039)
MAP4K5 (human) = MAP4K5 (human) (UniProt Q9Y4K4)
AURKB (human) = AURKB (human) (UniProt Q96GD4)
EPHA8 (human) = EPHA8 (human) (UniProt P29322)
FGR (human) = FGR (human) (UniProt P09769)
FRK (human) = FRK (human) (UniProt P42685)
DAPK3 (human) = DAPK3 (human) (UniProt O43293)
ADCK3 (human) = ADCK3 (human) (UniProt Q8NI60)
PRKACB (human) = PRKACB (human) (UniProt P22694)
CSNK2A1 (human) = CSNK2A1 (human) (UniProt P68400)
NTRK1 (human) = NTRK1 (human) (UniProt P04629)
MAP3K5 (human) = MAP3K5 (human) (UniProt Q99683)
PAK6 (human) = PAK6 (human) (UniProt Q9NQU5)
BRAF (human) = BRAF (human) (UniProt P15056)
[2] = system: RET (human), P07949 [V804M]
FLT4 (human) = FLT4 (human) (UniProt P35916)
MAP3K2 (human) = MAP3K2 (human) (UniProt Q9Y2U5)
AKT3 (human) = AKT3 (human) (UniProt Q9Y243)
CDK2 (human) = CDK2 (human) (UniProt P24941)
MAPK4 (human) = MAPK4 (human) (UniProt P31152)
MAPK12 (human) = MAPK12 (human) (UniProt P53778)
CLK1 (human) = CLK1 (human) (UniProt P49759)
DYRK1A (human) = DYRK1A (human) (UniProt Q13627)
FGFR2 (human) = FGFR2 (human) (UniProt P21802)
HCK (human) = HCK (human) (UniProt P08631)
CaMK1 (human) = CaMK1 (human) (UniProt Q14012)
RPS6KA4 KD1 (human) = RPS6KA4 KD1 (human) (UniProt O75676)
CLK2 (human) = CLK2 (human) (UniProt P49760)
[3] = system: FLT3 (human), P36888 [D835H]
[4] = system: KIT (human), P10721 [V559D/T670I]
BTK (human) = BTK (human) (UniProt Q06187)

Chain of AKT3 (human) (Q9Y243 whole entry, looked up): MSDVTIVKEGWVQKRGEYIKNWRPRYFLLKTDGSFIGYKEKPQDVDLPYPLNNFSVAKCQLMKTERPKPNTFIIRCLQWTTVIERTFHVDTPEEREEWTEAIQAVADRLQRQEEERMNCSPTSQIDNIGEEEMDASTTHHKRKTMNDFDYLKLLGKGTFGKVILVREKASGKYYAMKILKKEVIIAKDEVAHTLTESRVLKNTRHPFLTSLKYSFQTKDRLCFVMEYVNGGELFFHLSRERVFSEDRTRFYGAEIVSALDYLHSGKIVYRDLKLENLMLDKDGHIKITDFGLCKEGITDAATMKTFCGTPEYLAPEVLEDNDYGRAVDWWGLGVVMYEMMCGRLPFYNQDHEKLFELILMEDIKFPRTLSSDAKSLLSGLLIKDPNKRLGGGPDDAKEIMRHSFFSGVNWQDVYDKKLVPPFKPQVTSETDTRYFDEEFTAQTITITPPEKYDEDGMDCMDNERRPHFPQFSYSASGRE
Chain of MAP3K5 (human) (Q99683 whole entry, looked up): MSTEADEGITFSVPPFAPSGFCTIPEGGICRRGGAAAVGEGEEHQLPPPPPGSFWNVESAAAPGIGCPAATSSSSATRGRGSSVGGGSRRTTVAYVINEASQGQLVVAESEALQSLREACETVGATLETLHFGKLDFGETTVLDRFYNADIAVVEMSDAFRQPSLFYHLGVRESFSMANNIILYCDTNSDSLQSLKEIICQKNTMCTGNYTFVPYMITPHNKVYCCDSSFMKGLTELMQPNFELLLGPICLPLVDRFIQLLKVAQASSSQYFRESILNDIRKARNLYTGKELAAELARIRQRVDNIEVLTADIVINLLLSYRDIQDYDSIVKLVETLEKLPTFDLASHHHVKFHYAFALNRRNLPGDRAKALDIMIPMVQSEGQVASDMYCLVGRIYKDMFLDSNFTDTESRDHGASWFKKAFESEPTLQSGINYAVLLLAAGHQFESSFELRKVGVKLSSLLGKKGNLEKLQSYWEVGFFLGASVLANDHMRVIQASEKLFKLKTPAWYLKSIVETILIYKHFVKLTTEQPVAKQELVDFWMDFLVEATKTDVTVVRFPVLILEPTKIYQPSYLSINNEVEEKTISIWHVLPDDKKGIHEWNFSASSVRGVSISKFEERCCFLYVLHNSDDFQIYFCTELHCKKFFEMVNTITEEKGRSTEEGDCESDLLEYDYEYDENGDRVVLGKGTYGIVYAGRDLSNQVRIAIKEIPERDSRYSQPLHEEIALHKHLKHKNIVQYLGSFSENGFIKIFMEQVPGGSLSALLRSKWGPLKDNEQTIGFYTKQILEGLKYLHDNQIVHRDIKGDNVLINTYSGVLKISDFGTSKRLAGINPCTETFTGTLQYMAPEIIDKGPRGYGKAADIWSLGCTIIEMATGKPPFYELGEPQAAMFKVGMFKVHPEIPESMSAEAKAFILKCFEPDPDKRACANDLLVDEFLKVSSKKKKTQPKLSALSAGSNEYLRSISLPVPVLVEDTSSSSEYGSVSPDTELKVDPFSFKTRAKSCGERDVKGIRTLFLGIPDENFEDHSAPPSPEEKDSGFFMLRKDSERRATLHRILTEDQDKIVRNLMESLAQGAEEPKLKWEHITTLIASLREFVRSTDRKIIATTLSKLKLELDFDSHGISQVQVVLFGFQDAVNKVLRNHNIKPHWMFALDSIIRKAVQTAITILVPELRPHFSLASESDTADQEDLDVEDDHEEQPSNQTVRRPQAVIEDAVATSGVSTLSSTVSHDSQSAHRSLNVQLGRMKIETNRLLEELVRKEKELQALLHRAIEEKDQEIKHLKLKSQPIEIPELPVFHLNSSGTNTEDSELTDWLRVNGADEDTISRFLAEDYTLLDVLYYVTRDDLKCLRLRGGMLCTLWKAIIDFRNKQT
Chain of AKT2 (human) (P31751 whole entry, looked up): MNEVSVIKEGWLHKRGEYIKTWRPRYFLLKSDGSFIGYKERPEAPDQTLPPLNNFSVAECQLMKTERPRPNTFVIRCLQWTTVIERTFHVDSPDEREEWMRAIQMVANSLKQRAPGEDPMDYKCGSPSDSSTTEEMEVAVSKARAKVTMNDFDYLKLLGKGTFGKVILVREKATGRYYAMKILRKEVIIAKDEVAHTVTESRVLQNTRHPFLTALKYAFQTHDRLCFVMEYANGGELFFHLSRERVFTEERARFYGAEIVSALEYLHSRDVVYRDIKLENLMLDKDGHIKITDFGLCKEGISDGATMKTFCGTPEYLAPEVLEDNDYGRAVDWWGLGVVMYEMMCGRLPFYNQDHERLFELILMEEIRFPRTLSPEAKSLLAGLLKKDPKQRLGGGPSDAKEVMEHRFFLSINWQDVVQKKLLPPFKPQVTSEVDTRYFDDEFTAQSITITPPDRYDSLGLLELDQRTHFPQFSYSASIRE
Chain of CLK2 (human) (P49760 whole entry, looked up): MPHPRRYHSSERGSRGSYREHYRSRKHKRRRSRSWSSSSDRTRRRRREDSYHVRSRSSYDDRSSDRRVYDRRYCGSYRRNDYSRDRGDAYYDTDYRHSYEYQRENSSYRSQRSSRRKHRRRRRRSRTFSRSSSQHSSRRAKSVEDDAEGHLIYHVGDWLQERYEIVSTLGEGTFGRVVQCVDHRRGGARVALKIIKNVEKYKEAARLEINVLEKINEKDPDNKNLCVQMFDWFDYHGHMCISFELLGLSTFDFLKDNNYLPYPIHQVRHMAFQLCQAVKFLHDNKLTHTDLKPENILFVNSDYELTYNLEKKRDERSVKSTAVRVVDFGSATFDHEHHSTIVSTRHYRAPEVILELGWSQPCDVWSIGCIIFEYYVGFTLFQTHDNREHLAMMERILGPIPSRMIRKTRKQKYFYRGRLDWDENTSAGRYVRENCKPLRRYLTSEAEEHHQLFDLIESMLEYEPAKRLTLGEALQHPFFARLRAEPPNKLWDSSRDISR
Chain of MAP3K2 (human) (Q9Y2U5 whole entry, looked up): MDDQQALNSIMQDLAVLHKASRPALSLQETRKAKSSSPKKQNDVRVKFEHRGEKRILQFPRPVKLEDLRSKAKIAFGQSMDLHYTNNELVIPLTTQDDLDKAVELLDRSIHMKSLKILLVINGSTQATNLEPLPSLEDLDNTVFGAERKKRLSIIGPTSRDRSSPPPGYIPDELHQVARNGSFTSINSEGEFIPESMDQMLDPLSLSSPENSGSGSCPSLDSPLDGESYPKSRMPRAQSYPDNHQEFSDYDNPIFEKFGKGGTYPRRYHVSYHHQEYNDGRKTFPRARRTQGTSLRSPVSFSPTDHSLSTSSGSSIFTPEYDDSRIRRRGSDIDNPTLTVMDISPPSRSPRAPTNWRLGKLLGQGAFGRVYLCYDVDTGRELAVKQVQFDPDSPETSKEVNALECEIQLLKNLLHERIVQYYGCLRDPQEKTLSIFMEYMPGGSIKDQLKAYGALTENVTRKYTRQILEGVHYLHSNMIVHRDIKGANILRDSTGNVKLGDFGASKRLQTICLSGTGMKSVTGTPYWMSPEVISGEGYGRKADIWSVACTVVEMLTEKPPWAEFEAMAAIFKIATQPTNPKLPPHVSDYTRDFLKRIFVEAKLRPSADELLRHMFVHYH
Chain of HCK (human) (P08631 whole entry, looked up): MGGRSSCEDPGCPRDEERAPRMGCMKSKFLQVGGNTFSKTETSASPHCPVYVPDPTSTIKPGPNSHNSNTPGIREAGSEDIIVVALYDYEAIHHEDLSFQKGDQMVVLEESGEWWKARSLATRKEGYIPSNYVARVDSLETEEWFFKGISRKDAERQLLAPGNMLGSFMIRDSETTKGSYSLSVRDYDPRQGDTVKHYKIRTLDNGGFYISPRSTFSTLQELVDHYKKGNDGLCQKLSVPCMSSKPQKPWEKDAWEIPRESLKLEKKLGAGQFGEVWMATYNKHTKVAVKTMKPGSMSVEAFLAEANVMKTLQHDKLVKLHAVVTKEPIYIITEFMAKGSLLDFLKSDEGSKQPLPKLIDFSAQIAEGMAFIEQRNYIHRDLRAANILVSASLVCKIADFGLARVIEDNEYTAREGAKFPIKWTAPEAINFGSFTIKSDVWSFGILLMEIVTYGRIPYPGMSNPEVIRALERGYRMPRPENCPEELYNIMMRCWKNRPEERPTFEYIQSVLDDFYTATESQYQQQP
Chain of RPS6KA4 KD1 (human) (O75676 whole entry, looked up): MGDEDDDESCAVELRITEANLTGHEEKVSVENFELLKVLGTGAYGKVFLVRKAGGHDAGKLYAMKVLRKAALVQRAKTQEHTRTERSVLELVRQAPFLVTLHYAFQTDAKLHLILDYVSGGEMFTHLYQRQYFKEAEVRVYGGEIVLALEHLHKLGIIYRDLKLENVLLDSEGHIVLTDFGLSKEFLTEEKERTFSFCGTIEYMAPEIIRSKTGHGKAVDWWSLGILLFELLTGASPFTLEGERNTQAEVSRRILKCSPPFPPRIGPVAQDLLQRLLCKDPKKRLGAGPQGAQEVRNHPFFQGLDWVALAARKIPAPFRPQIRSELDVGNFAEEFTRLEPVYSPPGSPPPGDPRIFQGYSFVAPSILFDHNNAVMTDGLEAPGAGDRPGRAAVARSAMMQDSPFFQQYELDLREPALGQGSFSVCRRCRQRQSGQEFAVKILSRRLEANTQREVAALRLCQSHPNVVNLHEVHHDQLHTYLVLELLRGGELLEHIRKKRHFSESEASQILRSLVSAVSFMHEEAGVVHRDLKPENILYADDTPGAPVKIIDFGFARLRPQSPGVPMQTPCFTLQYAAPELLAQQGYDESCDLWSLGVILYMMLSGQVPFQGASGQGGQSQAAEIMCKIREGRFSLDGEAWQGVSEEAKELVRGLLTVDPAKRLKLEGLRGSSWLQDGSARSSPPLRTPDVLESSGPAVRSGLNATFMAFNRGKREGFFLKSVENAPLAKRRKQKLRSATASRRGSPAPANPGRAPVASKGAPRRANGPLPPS

Work on `CCC(=O)N1CCN(c2ccc(-n3c(=O)ccc4cnc5ccc(-c6cnc7ccccc7c6)cc5c43)cc2C(F)(F)F)CC1` yielded a kinase still bound, per cent of control (NTRK2 (human)) of 81%, a kinase still bound, per cent of control (PLK2 (human)) of 85% and a kinase still bound, per cent of control (PHKG1 (human)) of 100%. The kinase still bound, per cent of control [1] was 99%, the per cent of control (CDK4 CCND1 (human)) was 100% and the kinase still bound, per cent of control (PIK3C2G (human)) was 11%. It also gave a kinase still bound, per cent of control (PRKD1 (human)) of 99%, a kinase still bound, per cent of control (ERBB4 (human)) of 100% and a kinase still bound, per cent of control (AKT2 (human)) of 100%. For the same compound, the kinase still bound, per cent of control (MAP3K15 (human)) was 100%, the per cent of control (CDKL5 (human)) was 100% and the kinase still bound, per cent of control (MAP4K5 (human)) was 8.1%. The kinase still bound, per cent of control (AURKB (human)) was 82%, the kinase still bound, per cent of control (EPHA8 (human)) was 71% and the kinase still bound, per cent of control (FGR (human)) was 78%. For the same compound, the kinase still bound, per cent of control (FRK (human)) was 60%, the kinase still bound, per cent of control (DAPK3 (human)) was 82% and the kinase still bound, per cent of control (ADCK3 (human)) was 17%. The per cent of control (PRKACB (human)) was 100%, the kinase still bound, per cent of control (CSNK2A1 (human)) was 94% and the kinase still bound, per cent of control (NTRK1 (human)) was 64%. The kinase still bound, per cent of control (MAP3K5 (human)) was 100%, the kinase still bound, per cent of control (PAK6 (human)) was 77% and the kinase still bound, per cent of control (BRAF (human)) was 59%. The kinase still bound, per cent of control [2] was 69%, the kinase still bound, per cent of control (FLT4 (human)) was 74% and the kinase still bound, per cent of control (MAP3K2 (human)) was 62%. It also gave a kinase still bound, per cent of control (AKT3 (human)) of 77%, a per cent of control (CDK2 (human)) of 6.2% and a kinase still bound, per cent of control (MAPK4 (human)) of 80%. It also gave a kinase still bound, per cent of control (MAPK12 (human)) of 71%, a kinase still bound, per cent of control (CLK1 (human)) of 49% and a kinase still bound, per cent of control (DYRK1A (human)) of 71%. For the same compound, the kinase still bound, per cent of control (FGFR2 (human)) was 55%, the kinase still bound, per cent of control (HCK (human)) was 77% and the kinase still bound, per cent of control (CaMK1 (human)) was 50%. The kinase still bound, per cent of control (RPS6KA4 KD1 (human)) was 100%, the kinase still bound, per cent of control (CLK2 (human)) was 65% and the kinase still bound, per cent of control [3] was 18%.

`CC(C)n1nc(-c2cc3cc(O)ccc3[nH]2)c2c(N)ncnc21` showed a kinase still bound, per cent of control (PLK2 (human)) of 13%, a kinase still bound, per cent of control (PHKG1 (human)) of 50% and a kinase still bound, per cent of control [1] of 2.6%. It also gave a per cent of control (CDK4 CCND1 (human)) of 60%, a kinase still bound, per cent of control (PIK3C2G (human)) of 3.4% and a kinase still bound, per cent of control (PRKD1 (human)) of 100%. The kinase still bound, per cent of control (ERBB4 (human)) was 49%, the kinase still bound, per cent of control (AKT2 (human)) was 100% and the kinase still bound, per cent of control [4] was 30%. It also gave a kinase still bound, per cent of control (MAP3K15 (human)) of 76%, a per cent of control (CDKL5 (human)) of 100% and a kinase still bound, per cent of control (MAP4K5 (human)) of 72%. For the same compound, the kinase still bound, per cent of control (AURKB (human)) was 85%, the kinase still bound, per cent of control (EPHA8 (human)) was 1.2% and the kinase still bound, per cent of control (FGR (human)) was 5.6%. For the same compound, the kinase still bound, per cent of control (FRK (human)) was 12%, the kinase still bound, per cent of control (DAPK3 (human)) was 2.8% and the kinase still bound, per cent of control (ADCK3 (human)) was 57%. For the same compound, the per cent of control (PRKACB (human)) was 65%, the kinase still bound, per cent of control (CSNK2A1 (human)) was 16% and the kinase still bound, per cent of control (NTRK1 (human)) was 46%. For the same compound, the kinase still bound, per cent of control (BTK (human)) was 22%, the kinase still bound, per cent of control (MAP3K5 (human)) was 100% and the kinase still bound, per cent of control (PAK6 (human)) was 23%. It also gave a kinase still bound, per cent of control (BRAF (human)) of 5.8%, a kinase still bound, per cent of control [2] of 12% and a kinase still bound, per cent of control (FLT4 (human)) of 0.3%. It also gave a kinase still bound, per cent of control (MAP3K2 (human)) of 4.8%, a kinase still bound, per cent of control (AKT3 (human)) of 29% and a per cent of control (CDK2 (human)) of 69%. For the same compound, the kinase still bound, per cent of control (MAPK4 (human)) was 75%, the kinase still bound, per cent of control (MAPK12 (human)) was 59% and the kinase still bound, per cent of control (CLK1 (human)) was 14%. The kinase still bound, per cent of control (DYRK1A (human)) was 27%, the kinase still bound, per cent of control (FGFR2 (human)) was 5.8% and the kinase still bound, per cent of control (HCK (human)) was 2.5%. For the same compound, the kinase still bound, per cent of control (CaMK1 (human)) was 45%, the kinase still bound, per cent of control (RPS6KA4 KD1 (human)) was 100% and the kinase still bound, per cent of control (CLK2 (human)) was 9.7%. It also gave a kinase still bound, per cent of control [3] of 7.4%.

In the case of `COc1ccc(-c2ccc3c(N4CCOCC4)nc(N4C[C@@H](C)O[C@@H](C)C4)nc3n2)cc1CO`, the kinase still bound, per cent of control (NTRK2 (human)) is reported as 73%, the kinase still bound, per cent of control (PLK2 (human)) is reported as 100% and the kinase still bound, per cent of control (PHKG1 (human)) is reported as 93%. For the same compound, the kinase still bound, per cent of control [1] was 100%, the per cent of control (CDK4 CCND1 (human)) was 70% and the kinase still bound, per cent of control (PIK3C2G (human)) was 43%. For the same compound, the kinase still bound, per cent of control (PRKD1 (human)) was 91%, the kinase still bound, per cent of control (ERBB4 (human)) was 89% and the kinase still bound, per cent of control (AKT2 (human)) was 83%. The kinase still bound, per cent of control [4] was 80%, the kinase still bound, per cent of control (MAP3K15 (human)) was 97% and the per cent of control (CDKL5 (human)) was 77%. It also gave a kinase still bound, per cent of control (MAP4K5 (human)) of 96%, a kinase still bound, per cent of control (AURKB (human)) of 73% and a kinase still bound, per cent of control (EPHA8 (human)) of 80%. It also gave a kinase still bound, per cent of control (FGR (human)) of 100%, a kinase still bound, per cent of control (FRK (human)) of 100% and a kinase still bound, per cent of control (DAPK3 (human)) of 89%. It also gave a kinase still bound, per cent of control (ADCK3 (human)) of 87%, a per cent of control (PRKACB (human)) of 96% and a kinase still bound, per cent of control (CSNK2A1 (human)) of 96%. For the same compound, the kinase still bound, per cent of control (NTRK1 (human)) was 72%, the kinase still bound, per cent of control (BTK (human)) was 100% and the kinase still bound, per cent of control (MAP3K5 (human)) was 97%. The kinase still bound, per cent of control (PAK6 (human)) was 90%, the kinase still bound, per cent of control (BRAF (human)) was 81% and the kinase still bound, per cent of control [2] was 94%. For the same compound, the kinase still bound, per cent of control (FLT4 (human)) was 100%, the kinase still bound, per cent of control (MAP3K2 (human)) was 78% and the kinase still bound, per cent of control (AKT3 (human)) was 97%. For the same compound, the per cent of control (CDK2 (human)) was 77%, the kinase still bound, per cent of control (MAPK4 (human)) was 100% and the kinase still bound, per cent of control (MAPK12 (human)) was 100%. For the same compound, the kinase still bound, per cent of control (CLK1 (human)) was 52%, the kinase still bound, per cent of control (DYRK1A (human)) was 94% and the kinase still bound, per cent of control (FGFR2 (human)) was 99%. It also gave a kinase still bound, per cent of control (HCK (human)) of 100%, a kinase still bound, per cent of control (CaMK1 (human)) of 90% and a kinase still bound, per cent of control (RPS6KA4 KD1 (human)) of 96%. It also gave a kinase still bound, per cent of control (CLK2 (human)) of 64% and a kinase still bound, per cent of control [3] of 100%.
